Where two headings read alike, the source gives them in different places.
Columns and labels:
Experiment in all cases: Etest MIC of indicator carbapenems on MH II agar without/with PMBN
Format in all cases: cell-based
E. aerogenes 1204048 = details: in µg/mL
Description: (§1) The determinations of antibiotic MIC were carried out on solid culture media with the Etest® method. To do this, Etest® strips (bioMérieux, France) were used: • Etest® Imipenem IM 32, and • Etest® Ertapenem ETP 32, and also solid culture media, differing from one another by virtue of their non-inhibitory concentrations of PMBN.
(§2) These solid culture media are prepared in Petri dishes (0=145 mm; V=50 ml) on a base of MH II Agar (Becton Dickinson®, United States), more or less supplemented with PMBN. The PMBN concentrations range from 0 up to concentrations equivalent to one fifth of the MIC of PMBN (⅕ MICPMBN).
(§3) Using a swab and the Retro C80™ rota-plater (bioMérieux, France), the culture media were inoculated with the bacteria, originating from an inoculum of 0.5 McFarland, prepared in 0.85% NaCl solution from colonies subcultured the day before on MH II agar.
(§4) The various Etest® strips are then deposited on the surface of the culture media. After 16 to 20 hours of incubation at 35° C., the MICS were read.
(§5) To do this, imipenem and ertapenem were used as indicator carbapenems. Non-inhibitory concentrations of PMBN, equivalent to concentrations of one tenth ( 1/10), one eighth (⅛) and one fifth (⅕) of the MIC of PMBN, were applied.
(§6) In the light of the MICPMBN values previously identified, very predominantly much higher than 300 μg/ml, the following standard concentrations were retained and applied to the bacterial strains to be tested: 50, 100, 150, 200 and 300 μg/ml.
(§7) By way of indicator carbapenems according to the invention, in addition to imipenem (IM) and ertapenem (ETP), meropenem (MP) was also tested. Like the other two antibiotics, meropenem was used in the form of Etest® strips (Etest® Meropenem MP 32 from the company bioMérieux, France).
(§8) The methods used to prepare the new culture media and to carry out the antibiotic-sensitivity tests are identical to those described above.

E. coli 1204043 = test system: E. coli 1204043
Description: as §1, §2, §3, §4, §5, §6, §7, §8

E. aerogenes 9306071 = test system: E. aerogenes 9306071
Description: as §1, §2, §3, §4, §5, §6, §7, §8

E. cloacae 9402034 = test system: E. cloacae 9402034
Description: as §1, §2, §3, §4, §5, §6, §7, §8

K. pneumoniae 1002015 = test system: K. pneumoniae 1002015
Description: as §1, §2, §3, §4, §5, §6, §7, §8

E. aerogenes 9203076 = test system: E. aerogenes 9203076
Description: as §1, §2, §3, §4, §5, §6, §7, §8

K. pneumoniae 1204034 = test system: K. pneumoniae 1204034
Description: as §1, §2, §3, §4, §5, §6, §7, §8

[1] = test system: E. cloacae 1008080 (IMP producer); details: in µg/mL
Description: as §1, §2, §3, §4, §7, §8

[2] = test system: E. aerogenes 1204050 (membrane impermeability); details: in µg/mL
Description: as §1, §2, §3, §4, §7, §8

[3] = test system: E. cloacae 1204053 (membrane impermeability)
Description: as §1, §2, §3, §4, §7, §8

[4] = test system: E. cloacae 1204051 (membrane impermeability)
Description: as §1, §2, §3, §4, §7, §8

C[C@@H](O)[C@H]1C(=O)N2C(C(=O)O)=C(S[C@@H]3CN[C@H](C(=O)Nc4cccc(C(=O)O)c4)C3)[C@H](C)[C@H]12 [ETP, ertapenem]
MIC (E. aerogenes 1204048; E. aerogenes 1204048 (membrane impermeability), [PMBN] 0, Table 4a): >32 | MIC (E. aerogenes 1204048; E. aerogenes 1204048 (membrane impermeability), [PMBN] 100, Table 4a): 16 | MIC (E. aerogenes 1204048; E. aerogenes 1204048 (membrane impermeability), [PMBN] 200, Table 4a): 16 | MIC (E. aerogenes 1204048; E. aerogenes 1204048 (membrane impermeability), [PMBN] 300, Table 4a): 8 | MIC (E. aerogenes 1204048; E. aerogenes 1204048, [PMBN] 0, Table 3): 32 | MIC (E. aerogenes 1204048; E. aerogenes 1204048, [PMBN] MIC/5): 2 | MIC (E. aerogenes 1204048; E. aerogenes 1204048, [PMBN] MIC/8): 2 | MIC (E. aerogenes 1204048; E. aerogenes 1204048, [PMBN] MIC/10): 4 | MIC (E. coli 1204043; E. coli 1204043 (membrane impermeability), [PMBN] 0, Table 4a, in µg/mL): >32 | MIC (E. coli 1204043; E. coli 1204043 (membrane impermeability), [PMBN] 100, Table 4a, in µg/mL): 6 | MIC (E. coli 1204043; E. coli 1204043 (membrane impermeability), [PMBN] 200, Table 4a, in µg/mL): 2-4 | MIC (E. coli 1204043; E. coli 1204043 (membrane impermeability), [PMBN] 300, Table 4a, in µg/mL): 1.5 | MIC (E. coli 1204043; E. coli 1204043, [PMBN] 0, Table 3, in µg/mL): 32 | MIC (E. coli 1204043; E. coli 1204043, [PMBN] MIC/5, in µg/mL): 1 | MIC (E. coli 1204043; E. coli 1204043, [PMBN] MIC/8, in µg/mL): 2 | MIC (E. coli 1204043; E. coli 1204043, [PMBN] MIC/10, in µg/mL): 1 | MIC (E. coli 1204043; Escherichia coli, 1204043, E. coli 1204043 (porin−), [PMBN] 0, Table 4, read-out: MIC): > 32 µg/mL | MIC (E. coli 1204043; Escherichia coli, 1204043, E. coli 1204043 (porin−), [PMBN] 150 μg/ml, Table 4, read-out: MIC): 0.38 µg/mL | MIC (E. coli 1204043; Escherichia coli, 1204043, E. coli 1204043 (porin−), [PMBN] 200 μg/ml, Table 4, read-out: MIC): 0.19 µg/mL | MIC (E. aerogenes 9306071; E. aerogenes 9306071 (membrane impermeability), [PMBN] 0, Table 4a): > 32 µg/mL | MIC (E. aerogenes 9306071; E. aerogenes 9306071 (membrane impermeability), [PMBN] 100, Table 4a): 12 µg/mL | MIC (E. aerogenes 9306071; E. aerogenes 9306071 (membrane impermeability), [PMBN] 200, Table 4a): 8 µg/mL | MIC (E. aerogenes 9306071; E. aerogenes 9306071 (membrane impermeability), [PMBN] 300, Table 4a): 4 µg/mL | MIC (E. aerogenes 9306071; E. aerogenes 9306071, [PMBN] 0, Table 3): 32 µg/mL | MIC (E. aerogenes 9306071; E. aerogenes 9306071, [PMBN] MIC/5): 4 µg/mL | MIC (E. aerogenes 9306071; E. aerogenes 9306071, [PMBN] MIC/8): 4 µg/mL | MIC (E. aerogenes 9306071; E. aerogenes 9306071, [PMBN] MIC/10): 4 µg/mL | MIC (E. cloacae 9402034; E. cloacae 9402034 (membrane impermeability), [PMBN] 0, Table 4a): > 32 µg/mL | MIC (E. cloacae 9402034; E. cloacae 9402034 (membrane impermeability), [PMBN] 100, Table 4a): > 32 µg/mL | MIC (E. cloacae 9402034; E. cloacae 9402034 (membrane impermeability), [PMBN] 200, Table 4a): 12 µg/mL | MIC (E. cloacae 9402034; E. cloacae 9402034 (membrane impermeability), [PMBN] 300, Table 4a): 12 µg/mL | MIC (E. cloacae 9402034; E. cloacae 9402034, [PMBN] 0, Table 3): 64 µg/mL | MIC (E. cloacae 9402034; E. cloacae 9402034, [PMBN] MIC/5): 16 µg/mL | MIC (E. cloacae 9402034; E. cloacae 9402034, [PMBN] MIC/8): 16 µg/mL | MIC (E. cloacae 9402034; E. cloacae 9402034, [PMBN] MIC/10): 16 µg/mL | MIC (K. pneumoniae 1002015; K. pneumoniae 1002015, [PMBN] 0, Table 3): 32 µg/mL | MIC (K. pneumoniae 1002015; K. pneumoniae 1002015, [PMBN] MIC/5): 1 µg/mL | MIC (K. pneumoniae 1002015; K. pneumoniae 1002015, [PMBN] MIC/8): 2 µg/mL | MIC (K. pneumoniae 1002015; K. pneumoniae 1002015, [PMBN] MIC/10): 4 µg/mL | MIC (K. pneumoniae 1002015; Klebsiella pneumoniae, 1002015, K. pneumoniae 1002015 (porin−), [PMBN] 0, Table 4, read-out: MIC): 4 µg/mL | MIC (K. pneumoniae 1002015; Klebsiella pneumoniae, 1002015, K. pneumoniae 1002015 (porin−), [PMBN] 150 μg/ml, Table 4, read-out: MIC): 0.5 µg/mL | MIC (K. pneumoniae 1002015; Klebsiella pneumoniae, 1002015, K. pneumoniae 1002015 (porin−), [PMBN] 200 μg/ml, Table 4, read-out: MIC): 0.38 µg/mL | MIC (E. aerogenes 9203076; E. aerogenes 9203076 (membrane impermeability), [PMBN] 0, Table 4a, in µg/mL): >32 | MIC (E. aerogenes 9203076; E. aerogenes 9203076 (membrane impermeability), [PMBN] 100, Table 4a, in µg/mL): 16 | MIC (E. aerogenes 9203076; E. aerogenes 9203076 (membrane impermeability), [PMBN] 200, Table 4a, in µg/mL): 12 | MIC (E. aerogenes 9203076; E. aerogenes 9203076 (membrane impermeability), [PMBN] 300, Table 4a, in µg/mL): 4 | MIC (E. aerogenes 9203076; E. aerogenes 9203076, [PMBN] 0, Table 3, in µg/mL): 32 | MIC (E. aerogenes 9203076; E. aerogenes 9203076, [PMBN] MIC/5, in µg/mL): 2 | MIC (E. aerogenes 9203076; E. aerogenes 9203076, [PMBN] MIC/8, in µg/mL): 4 | MIC (E. aerogenes 9203076; E. aerogenes 9203076, [PMBN] MIC/10, in µg/mL): 4 | MIC (E. aerogenes 9203076; Klebsiella aerogenes, 9203076, E. aerogenes 9203076 (porin−), [PMBN] 0, Table 4, read-out: MIC): 24 µg/mL | MIC (E. aerogenes 9203076; Klebsiella aerogenes, 9203076, E. aerogenes 9203076 (porin−), [PMBN] 150 μg/ml, Table 4, read-out: MIC): 3 µg/mL | MIC (E. aerogenes 9203076; Klebsiella aerogenes, 9203076, E. aerogenes 9203076 (porin−), [PMBN] 200 μg/ml, Table 4, read-out: MIC): 1.5 µg/mL | MIC (K. pneumoniae 1204034; K. pneumoniae 1204034 (membrane impermeability), [PMBN] 0, Table 4a): > 32 µg/mL | MIC (K. pneumoniae 1204034; K. pneumoniae 1204034 (membrane impermeability), [PMBN] 100, Table 4a): 12 µg/mL | MIC (K. pneumoniae 1204034; K. pneumoniae 1204034 (membrane impermeability), [PMBN] 200, Table 4a): 3 µg/mL | MIC (K. pneumoniae 1204034; K. pneumoniae 1204034 (membrane impermeability), [PMBN] 300, Table 4a): 2 µg/mL | MIC (K. pneumoniae 1204034; K. pneumoniae 1204034, [PMBN] 0, Table 3): 64 µg/mL | MIC (K. pneumoniae 1204034; K. pneumoniae 1204034, [PMBN] MIC/5): 4 µg/mL | MIC (K. pneumoniae 1204034; K. pneumoniae 1204034, [PMBN] MIC/8): 4 µg/mL | MIC (K. pneumoniae 1204034; K. pneumoniae 1204034, [PMBN] MIC/10): 8 µg/mL | MIC (K. pneumoniae 1204034; Klebsiella pneumoniae, 1204034, K. pneumoniae 1204034 (porin−), [PMBN] 0, Table 4, read-out: MIC): > 32 µg/mL | MIC (K. pneumoniae 1204034; Klebsiella pneumoniae, 1204034, K. pneumoniae 1204034 (porin−), [PMBN] 150 μg/ml, Table 4, read-out: MIC): 1.5 µg/mL | MIC (K. pneumoniae 1204034; Klebsiella pneumoniae, 1204034, K. pneumoniae 1204034 (porin−), [PMBN] 200 μg/ml, Table 4, read-out: MIC): 1 µg/mL | MIC ([1]; [PMBN] 0, Table 4a): 16 | MIC ([1]; [PMBN] 100, Table 4a): 24 | MIC ([1]; [PMBN] 200, Table 4a): >32 | MIC ([1]; [PMBN] 300, Table 4a): 12-24 | MIC ([2]; [PMBN] 0, Table 4a): >32 | MIC ([2]; [PMBN] 100, Table 4a): >32 | MIC ([2]; [PMBN] 200, Table 4a): >32 | MIC ([2]; [PMBN] 300, Table 4a): >32 | MIC ([3]; [PMBN] 0, Table 4a): > 32 µg/mL | MIC ([3]; [PMBN] 100, Table 4a): > 32 µg/mL | MIC ([3]; [PMBN] 200, Table 4a): > 32 µg/mL | MIC ([3]; [PMBN] 300, Table 4a): 4 µg/mL | MIC ([4]; [PMBN] 0, Table 4a): > 32 µg/mL | MIC ([4]; [PMBN] 100, Table 4a): 12 µg/mL | MIC ([4]; [PMBN] 200, Table 4a): 4 µg/mL | MIC ([4]; [PMBN] 300, Table 4a): 3 µg/mL
